Columns and labels:
Escherichia coli [1] = assay: Ratio of compound IZ to amikacin IZ for Escherichia coli MTCC 722 at 10 ug/ml by disk diffusion method; type: functional
Streptococcus pyogenes [2] = assay: Ratio of compound IZ to amikacin IZ for Streptococcus pyogenes MTCC 389 at 10 ug/ml by disk diffusion method; type: functional
Pseudomonas aeruginosa [3] = assay: Ratio of compound IZ to amikacin IZ for Pseudomonas aeruginosa […] at 10 ug/ml by disk diffusion method; type: functional
Candida albicans [4] = assay: Antifungal activity against Candida albicans MTCC 227 at 10 ug/ml by disk diffusion method; type: functional; conditions: read-out: IZ
Staphylococcus aureus [5] = assay: Antibacterial activity against Staphylococcus aureus MTCC 96 at 10 ug/ml by disk diffusion method; type: functional; conditions: read-out: IZ
Escherichia coli [6] = assay: Antibacterial activity against Escherichia coli MTCC 722 at 10 ug/ml by disk diffusion method; type: functional; conditions: read-out: IZ
Staphylococcus aureus [7] = assay: Ratio of compound IZ to amikacin IZ for Staphylococcus aureus MTCC 96 at 10 ug/ml by disk diffusion method; type: functional
Mus musculus = assay: Acute toxicity in Mus musculus (mouse) at 300 mg/kg; type: organism-based; set-up: dose 300 mg/kg; conditions: in vivo
Pseudomonas aeruginosa [8] = assay: Antibacterial activity against Pseudomonas aeruginosa […] at 10 ug/ml by disk diffusion method; type: functional; conditions: read-out: IZ
Streptococcus pyogenes [9] = assay: Antibacterial activity against Streptococcus pyogenes MTCC 389 at 10 ug/ml by disk diffusion method; type: functional; conditions: read-out: IZ
Candida albicans [10] = assay: Ratio of compound IZ to nystatin IZ for Candida albicans MTCC 227 at 10 ug/ml by disk diffusion method; type: functional

SMILES	Ratio (Escherichia coli [1])	Ratio (Streptococcus pyogenes [2])	Ratio (Pseudomonas aeruginosa [3])	zone of inhibition at 10 µg/mL (Candida albicans [4])	zone of inhibition at 10 µg/mL (Staphylococcus aureus [5])	zone of inhibition at 10 µg/mL (Escherichia coli [6])	Ratio (Staphylococcus aureus [7])	Activity (Mus musculus)	zone of inhibition at 10 µg/mL (Pseudomonas aeruginosa [8])	zone of inhibition at 10 µg/mL (Streptococcus pyogenes [9])	Ratio (Candida albicans [10])
CCOC(=O)C1C(c2ccc[nH]2)N(N=O)C(c2ccc[nH]2)C(C(=O)OCC)S1(=O)=O (configuration not stated)	0.65	0.7	0.71	11 mm	13 mm	11 mm	0.72	Non-toxic	12 mm	14 mm	0.58
CCOC(=O)C1C(c2cc3ccccc3nc2Cl)N(N=O)C(c2cc3ccccc3nc2Cl)C(C(=O)OCC)S1(=O)=O (configuration not stated)	0.53	0.6	0.59	18 mm	14 mm	9 mm	0.78	Non-toxic	10 mm	12 mm	0.95
CCOC(=O)C1C(c2c[nH]c3ccccc23)N(N=O)C(c2c[nH]c3ccccc23)C(C(=O)OCC)S1(=O)=O (configuration not stated)	0.71	0.45	0.65	15 mm	8 mm	12 mm	0.44	Non-toxic	11 mm	9 mm	0.79
CCOC(=O)C1C(c2ccc(OC)c(OC)c2)N(N=O)C(c2ccc(OC)c(OC)c2)C(C(=O)OCC)S1(=O)=O (configuration not stated)	0.76	0.4	0.65	14 mm	12 mm	13 mm	0.67	Non-toxic	11 mm	8 mm	0.74
CCOC(=O)C1C(c2ccccc2)N(N=O)C(c2ccccc2)C(C(=O)OCC)S1(=O)=O (configuration not stated)	0.71	0.75	0.76	13 mm	11 mm	12 mm	0.61	Non-toxic	13 mm	15 mm	0.69
CCOC(=O)C1C(c2ccccc2Cl)N(N=O)C(c2ccccc2Cl)C(C(=O)OCC)S1(=O)=O (configuration not stated)	0.76	0.5	0.71	16 mm	9 mm	13 mm	0.5	Non-toxic	12 mm	10 mm	0.84
CCOC(=O)C1C(c2cccc(Cl)c2)N(N=O)C(c2cccc(Cl)c2)C(C(=O)OCC)S1(=O)=O (configuration not stated)	0.82	0.4	0.59	15 mm	11 mm	14 mm	0.61	Non-toxic	10 mm	8 mm	0.79
CCOC(=O)C1C(c2ccc(Cl)cc2)N(N=O)C(c2ccc(Cl)cc2)C(C(=O)OCC)S1(=O)=O (configuration not stated)	0.76	0.5	0.71	16 mm	10 mm	13 mm	0.56	Non-toxic	12 mm	10 mm	0.84
CCOC(=O)C1C(c2cccc([N+](=O)[O-])c2)N(N=O)C(c2cccc([N+](=O)[O-])c2)C(C(=O)OCC)S1(=O)=O (configuration not stated)	0.82	0.45	0.88	13 mm	12 mm	14 mm	0.67	Non-toxic	15 mm	9 mm	0.69
CCOC(=O)C1C(c2ccc([N+](=O)[O-])cc2)N(N=O)C(c2ccc([N+](=O)[O-])cc2)C(C(=O)OCC)S1(=O)=O (configuration not stated)	1	0.85	0.65	12 mm	13 mm	17 mm	0.72	Non-toxic	11 mm	17 mm	0.63
CCOC(=O)C1C(c2ccc(OC)cc2)N(N=O)C(c2ccc(OC)cc2)C(C(=O)OCC)S1(=O)=O (configuration not stated)	0.71	0.65	1.11	13 mm	11 mm	12 mm	0.61	Non-toxic	18 mm	13 mm	0.69
CCOC(=O)C1C(c2ccc(C)cc2)N(N=O)C(c2ccc(C)cc2)C(C(=O)OCC)S1(=O)=O (configuration not stated)	1	0.85	0.53	11 mm	11 mm	17 mm	0.61	Non-toxic	9 mm	17 mm	0.58
CCOC(=O)C1C(c2ccco2)N(N=O)C(c2ccco2)C(C(=O)OCC)S1(=O)=O (configuration not stated)	0.88	0.55	0.59	14 mm	12 mm	15 mm	0.67	Non-toxic	10 mm	11 mm	0.74
CCOC(=O)C1C(c2cccs2)N(N=O)C(c2cccs2)C(C(=O)OCC)S1(=O)=O (configuration not stated)	0.76	0.75	0.82	20 mm	17 mm	13 mm	0.94	Non-toxic	14 mm	15 mm	1.11
CCOC(=O)C1C(c2ccsc2)N(N=O)C(c2ccsc2)C(C(=O)OCC)S1(=O)=O (configuration not stated)	0.82	0.45	0.76	14 mm	15 mm	14 mm	0.83	Non-toxic	13 mm	9 mm	0.74
CCOC(=O)C1C(c2ccccn2)N(N=O)C(c2ccccn2)C(C(=O)OCC)S1(=O)=O (configuration not stated)	0.59	0.55	0.53	12 mm	13 mm	10 mm	0.72	Non-toxic	9 mm	11 mm	0.63
CCOC(=O)C1C(c2cccnc2)N(N=O)C(c2cccnc2)C(C(=O)OCC)S1(=O)=O (configuration not stated)	0.71	0.4	0.65	15 mm	14 mm	12 mm	0.78	Non-toxic	11 mm	8 mm	0.79
CCOC(=O)C1C(c2ccc3c(c2)OCO3)N(N=O)C(c2ccc3c(c2)OCO3)C(C(=O)OCC)S1(=O)=O (configuration not stated)	0.47	0.55	0.71	10 mm	9 mm	8 mm	0.5	Non-toxic	12 mm	11 mm	0.53
NCC[C@H](O)C(=O)N[C@@H]1C[C@H](N)[C@@H](O[C@H]2O[C@H](CN)[C@@H](O)[C@H](O)[C@H]2O)[C@H](O)[C@H]1O[C@H]1O[C@H](CO)[C@@H](O)[C@H](N)[C@H]1O [AMIKACIN]	–	–	–	–	18 mm	17 mm	–	–	17 mm	20 mm	–

From ChEMBL document CHEMBL3045015, “Synthesis and physiological evaluation of new N-nitroso-2,6-dicarbethoxy-3,5-diaryltetrahydro-1,4-thiazine-1,1-dioxides” (Med Chem Res, 2012)
